Results on five molecules are retold here after patent US20030064954A1, “Cationic amphiphilic 1,4-dihydropyridine derivatives useful for delivery of nucleotide containing compounds” (priority 2000, published 2003).

For one data set, the system named is CVI-P cells. Briefly: Cytotoxicity of amphiphile/DNA complexes, percentage of survived cells.
The subject of data set [1] is CV-1P (African monkey green kidney fibroblasts cells). Kind of data set: In vitro transfection of plasmid DNA, β-galactosidase activity per well. The format is cell-based. The note with it: CVI-P; entry spans the charge ratios 8-0.5. The protocol: Transfer of plasmid DNA by various compounds was investigated by using CV-1P (African monkey green kidney fibroblasts cells) and D407 (human retinal pigment epithelial) cells.
The cells were cultured in Dulbecco's modified Eagle's medium (DMEM, Gibco), supplemented with 10% fetal bovine serum (FBS), penicillin/streptomycin (100 units/ml and 100 μg/ml respectively) and 2 mM L-glutamine for D 407 cell line. Cell cultures were maintained at 37° C. in a 7% CO2/air incubator. The cells were collected, counted and seeded in growth medium (100 μl) into 96-well culture plate, 20 000 cells per well. One day later the medium was replaced with fresh medium without serum (150 μl)
In the case of confluent CV1-P cells the medium (with of without serum) was changed on fourth day of cell growth before the transfection.
The complexes at different derivative/DNA charge ratios for transfection procedure were prepared just before use in 50 mM MES—50 mM HEPES—75 mM NaCl buffer, pH 7.2 in separate 96 well plates. One hour after changing the serum-free medium with 10% serum the complexes were added to the cells at […]. Dose of DNA per well was 0.6 μg. After 5 h the complexes were removed, the cells were washed with PBS, and the normal growth medium was added. After 45 h of incubation at 37° C. the cells were lysed with 2% Triton X 100, twice deep frozen and the β-galactosidase activity in each well was determined spectrofotometrically with ELx800 automated microplate reader (Bio-Tex Instruments Inc., Winooski, Vt. USA) by monitoring the hydrolysis of o-nitrophenylgalactopyranoside (oNPG) at 405 nm. Purified β-galactosidase from E.coli was used to construct a standard curve and to calculate […] activity in the transfected cells. […] Transfection efficiencies are given as percentage in comparison to transfection efficiency of Lipofectin^R.

In another data set the test system is plasmid DNA. Briefly: DNA condensation/complexation, EtBr displacement assay. The format is binding. How it is done:
The ability of the cationic amphiphiles to condense DNA was assessed with an EtBr displacement assay. Briefly, in 96 well plates plasmid DNA (0.6 μg per well) was reacted with 0.002% EtBr in 20 mM HEPES—150 mM NaCl buffer, pH 7.4 and fluorescence intensity was measured at 530 nm (excitation) and 590 nm (emission). Intercalation of EtBr molecules between the base pairs of the DNA double helix results in increased fluorescence signal. Immediately thereafter, the cationic liposomes were added to form complexes at different +/−charge ratios and the quenching of fluorescence intensity of EtBr was monitored. Condensation of DNA upon complexation with liposomes results in the displacement of EtBr from DNA and in decreased fluorescence signal. Fluorescence was measured using FL 500 microplate fluorescence reader (Bio-Tek Instruments Inc., Winooski, Vt., USA).
The values are expressed as percentage of the maximum fluorescence signal when EtBr bound to DNA in the absence of an amphiphile. Each data point is from at least triplicate experiment ±S.D.

[2] abbreviates: amphiphile/DNA +/− charge ratio 0.5.
Setting [3] is: amphiphile/DNA +/− charge ratio 1.
The mark [4] stands for this setting: amphiphile/DNA +/− charge ratio 2.
Setting [5] is: amphiphile/DNA +/− charge ratio 4.
The mark [6] stands for this setting: amphiphile/DNA +/− charge ratio 8.

Where “and” joins values, the source holds several entries; their conditions need not be identical. Equal entries are not always repeated.

For `CCCCCCCCCCCCCCCCOCCCOC(=O)C1=C(C)NC(C)=C(C(=O)OCCCOCCCCCCCCCCCCCCCC)C1c1ccc[n+](C)c1.[I-]` [II], the “cytotoxicity as a percentage of survived cells” value in the data set with CVI-P cells (setting [2]) is listed as 111,42%; in the data set with CVI-P cells (setting [3]), 101,24%; with CVI-P cells (setting [4]) it was 102,9%; in the data set on CVI-P cells (setting [5]), 79,08%; in the data set with CVI-P cells (setting [6]), 99,23%. The “transfection, result in words” value in data set [1] is recorded as “No signal”. The “complexation, percentage of the maximum fluorescence signal when EtBr bound to DNA in the absence of an amphiphile” value is 92,2% with plasmid DNA (setting [2]); 85,6% with plasmid DNA (setting [3]); 77,2% in the data set on plasmid DNA (setting [4]); 74,8% in the data set on plasmid DNA (setting [5]); 72,4% in the data set on plasmid DNA (setting [6]).

As to `CCCCCCCCCOC(=O)C1=C(C)NC(C)=C(C(=O)OCCCCCCCCC)C1c1ccc[n+](C)c1.I.[I-]` [IV, 1′,4′-Dihydro-1,2′,6′-trimethyl-3′,5′-bis(nonyloxycarbonyl)-3,4′-bipyridinium iodide], the “transfection, result in words” value in data set [1] is reported as “No signal”.

Regarding `CCCCCCCCCCCCCCCC(=O)OCC(COC(=O)C1=C(C)NC(C)=C(C(=O)OCC(COC(=O)CCCCCCCCCCCCCCC)OC(=O)CCCCCCCCCCCCCCC)C1c1ccc[n+](C)c1)OC(=O)CCCCCCCCCCCCCCC.I.[I-]` (stereo not shown) [IX, 3′,5′-Bis [(2,3-dipalmitoyloxypropoxy)carbonyl]-1′,4′-dihydro-1,2′,6′-trimethyl-3,4′-bipyridinium iodide], the “cytotoxicity as a percentage of survived cells” value was 83,11% and 90,48% in the data set on CVI-P cells (setting [2]); 84,63% and 107,13% in the data set with CVI-P cells (setting [3]); 97,34% and 120,34% in the data set with CVI-P cells (setting [4]); 106,62% and 117,42% in the data set with CVI-P cells (setting [5]); 100,65% and 124,54% with CVI-P cells (setting [6]). The “transfection, result in words” value in data set [1] is given as “No signal”. The “complexation, percentage of the maximum fluorescence signal when EtBr bound to DNA in the absence of an amphiphile” value with plasmid DNA (setting [2]) was 101,6% and 97,8%; in the data set with plasmid DNA (setting [3]), 101,6% and 97,5%; in the data set on plasmid DNA (setting [4]), 103,3% and 97,5%; in the data set on plasmid DNA (setting [5]), 97,8% and 98,4%; with plasmid DNA (setting [6]), 98,5% and 106,1%.

Turning to `Br.CCCCCCCCCCCCCCOC(=O)C1=C(C)NC(C)=C(C(=O)OCCCCCCCCCCCCCC)C1c1ccc[n+](CCCC)c1.[Br-]` [XXI, 1-Butyl-1′,4′-dihydro-2′,6′-dimethyl-3′,5′-bis(tetradecyloxycarbonyl)-3,4′-bipyridinium bromide], the “transfection, result in words” value in data set [1] is “No signal”.

On to `CCCCCCCCC=CCCCCCCCCOC(=O)C1=C(C[n+]2ccccc2)NC(C[n+]2ccccc2)=C(C(=O)OCCCCCCCCC=CCCCCCCCC)C1c1ccccc1.[Br-].[Br-]` (stereo not shown) [XXVI, 1,1′-[(3,5-Dioctadec-9′-enyloxycarbonyl-4-phenyl-1,4-dihydropyridine-2,6-diyl)dimethylene]bispyridinium dibromide], for which the “transfection, result in words” value in data set [1] is “No signal”.
